Key:
[1] = test system: HeLa cells; experiment: HeLa cell viability, MTT, 2 hr exposure; type: cell-based
Experimental: HeLa cells (ATCC designation CCL-2) were maintained in Dulbecco's Modified Eagle's medium (DMEM). […] All three cell types were cultured in media supplemented with 10% fetal bovine serum (FBS), […] (0.3 mg/ml), antibiotics (penicillin, streptomycin, and kanamycin at 0.04 mg/ml each), and 0.05% sodium bicarbonate.
(§1) The experiments described below were conducted to determine the activity and cytotoxicity of short chain compounds having one or two biguanide groups. […] The efficacy determinations were made using P4R5 cells, which allow for the detection of bacterial β-galactosidase activity upon release of viral tat protein into the parent HeLa cell.

[2] = molecular target: T1, CXCR4 (Homo sapiens, UniProt P61073); experiment: FACS analysis of CXCR4 on P4-R5 cells; type: cell-based; details: BCD 0.3%
T1 construct: host or cells: P4-R5 (P4-CCR5) cells, HeLa-derived
Excerpt: (§2) After a 2 hr exposure to PEHMB (0.1%), P4-R5 cell presentation of CXCR4 was reduced from 98% to 29% (FIG. 6).

[3] = test system: HIV-1 IIIB; experiment: HIV-1 IIIB viral binding/entry inhibition in P4R5 cells; type: cell-based
Experimental: (§3) To build on the information provided by the monomeric biguanide data a series of polybiguanide molecules were synthesized with varied linker length as described in Example 1. In these molecules the methylene spacer arms between the biguanide functionalities (X and Y in Forumla I) have been changed.
Antiviral assays include a viral binding/entry assay in which reporter cells such as P4R5 are incubated with virus in the presence of compound for two hours at which time the drug is washed off and the cells incubated for 48 hrs before measuring the intracellular production of β-galactosidase (Ojwang et al. 1995 Antimicrobial Agents and Chemotherapy 39:2426-2435). In cell-associated virus inhibition (CAI) assays, HIV-1111B infected SUP T1 cells are pelleted to remove cell free virus and incubated with each compound for ten minutes at 37° C. before a 1:10 dilution in media and incubation with P4R5 indicator cells for 48 hours before measuring β-galactosidase activity. In cell-free virus assays HIV-1IIIB or BaL were incubated with each compound for 10 minutes at 37° C. before a 1:100 dilution in RPM! 1640, and incubated for 2 hours with P4R5 cells, and subsequent assays for viral infectivity were performed 48 hours later using the β-galactosidase method.
Select compounds were assessed for their ability to inhibit events necessary for HIV-1 binding and entry.
The same strategy was tested using PEHMB.

[4] = molecular target: T1, CXCR4; experiment: FACS analysis of CXCR4 on PM-1 cells; type: cell-based; details: PEHMB 0.1%, BCD 0.3%, untreated 45%
Experimental: as §2
A similar experiment (FIG. 7) was performed using the PM-1 T lymphocyte cell line (Lusso et al. 1995 J. Virol 69:3712-3720). […] However, reductions in CD3 were not seen in response to compound exposure, indicating specificity of action with respect to PEHMB's impact on CXCR4 (data not shown).

[5] = test system: P4R5 cells; experiment: P4R5 cell viability, MTT
Excerpt: as §3
As described above the effect of PEHMB and related compounds on P4R5 cell viability after a two-hour exposure to the compound was compared to the effects of control compounds such as N-9. […] To further evaluate the effect of this class of compound on various types of cells (in particular PEHMB P4-R5 cells, ME-180 cells (ATCC HTB-33; cervical epidermoid carcinoma), VK2/E6E7 human vaginal cell line (Fichorova et al. 1997 Biol. Reprod. 57:847-855), and human primary vaginal karatinocytes (isolated from tissues obtained from vaginal reconstructive surgery)) the compounds were incubated with the different cells for various lengths of time before assessment of cell viability.

[6] = test system: ME-180 cells; experiment: ME-180 cell viability; type: cell-based
[7] = test system: cell-free HIV-1; experiment: Cell-free HIV-1 infectivity in P4R5 cells, β-galactosidase readout; type: cell-based; details: 2 hr exposure of cells to compounds in the presence of virus
Experimental: as §1

[8] = test system: Vk2/E6E7 cells; experiment: Vk2/E6E7 cell viability
[9] = test system: Primary vaginal keratinocytes; experiment: Primary vaginal keratinocyte viability; type: cell-based, human
[10] = test system: HIV-1 IIIB; experiment: Modified viral binding inhibition assay: pre-treatment, wash, then HIV-1 IIIB challenge; type: cell-based; details: 0.1% or 0.01%
Experimental: In a modified viral binding inhibition assay (VBI) assay, HIV-1-susceptible P4R5 cells were maintained for 1 or 2 hr in the presence of PEHMB (0.1% and 0.01%) and then washed extensively before challenge with HIV-1 IIIB.
HIV-1-susceptible target cells were incubated with PEHMB (0.1%) for 2 hr, washed extensively with PBS, and subsequently challenged with HIV-1 IIIB at 0, 0.5, 1, 2, 3, and 4 hours after washing.

T1 sequence (P61073 whole entry): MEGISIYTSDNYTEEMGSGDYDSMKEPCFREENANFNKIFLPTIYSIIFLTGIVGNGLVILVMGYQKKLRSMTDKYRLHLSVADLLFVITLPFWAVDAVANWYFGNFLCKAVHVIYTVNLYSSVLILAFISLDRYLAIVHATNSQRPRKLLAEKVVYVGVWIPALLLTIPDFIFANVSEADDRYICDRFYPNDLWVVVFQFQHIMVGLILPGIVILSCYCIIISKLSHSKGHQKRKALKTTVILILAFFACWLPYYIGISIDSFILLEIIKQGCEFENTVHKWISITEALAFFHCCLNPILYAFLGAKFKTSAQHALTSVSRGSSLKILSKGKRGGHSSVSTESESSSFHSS

[H]/N=C(/N)N/C(=N/[H])NCCc1ccccc1 [1-phenethyl biguanide]
CC50 (%) [1]: 0.538%

OC[C@H]1O[C@@H]2O[C@H]3[C@H](O)[C@@H](O)[C@@H](O[C@H]4[C@H](O)[C@@H](O)[C@@H](O[C@H]5[C@H](O)[C@@H](O)[C@@H](O[C@H]6[C@H](O)[C@@H](O)[C@@H](O[C@H]7[C@H](O)[C@@H](O)[C@@H](O[C@H]8[C@H](O)[C@@H](O)[C@@H](O[C@H]1[C@H](O)[C@H]2O)O[C@@H]8CO)O[C@@H]7CO)O[C@@H]6CO)O[C@@H]5CO)O[C@@H]4CO)O[C@@H]3CO [BCD, β-cyclodextrin]
effect on CXCR4 [2]: no apparent effect | remaining infectivity, % of mock-treated cells ([3]; PEHMB 0.1%, BCD 0.3%, HIV-1 strain IIIB): 27% | CXCR4 presentation [4]: 22% | cytotoxicity, FIG. 4A [5]: non-cytotoxic

nonoxynol-9 [N-9]
IC50 [3]: 0.003% | IC50 (%) ([3]; P4R5 cells, 2 hr exposure in the presence of HIV-1IIIB, Table 6): 0.005% | IC50 (%) ([3]; Table 3): 0.005% | IC50 (%) ([3]; Table 5): 0.005% | CC50 (%) [1]: 0.007% | CC50 % 10 minute exposure ([6]; 10 minute exposure): 0.20% | CC50 % 2 hr exposure ([6]; 2 hr exposure): 0.008% | CC50 % 6 hr exposure ([6]; 6 hr exposure): 0.007% | IC50 (%) [7]: 0.005% | CC50 % 10 minute exposure ([8]; 10 minute exposure): 0.03% | CC50 % 2 hr exposure ([8]; 2 hr exposure): 0.006% | CC50 % 6 hr exposure ([8]; 6 hr exposure): 0.002% | CC50 % 2 hr exposure [9]: 0.007% | CC50 ([5]; MTT): 0.003% | CC50 % 10 minute exposure ([5]; P4-R5 cells, 10 minute exposure): 0.2% | CC50 % 2 hr exposure ([5]; P4-R5 cells, 2 hr exposure): 0.008% | CC50 % 6 hr exposure ([5]; P4-R5 cells, 6 hr exposure): 0.005% | CC50 (%) ([5]; P4R5 cell data (2 hr exposure), Table 6): 0.005% | CC50 (%) ([5]; P4R5 cells, 2 hr exposure, MTT (Table 3)): 0.007% | CC50 (%) ([5]; Table 5): 0.007%

dextran sulfate
residual antiviral activity after removal of compound [10]: no residual antiviral activity

N=C(N)NC(=N)Nc1ccccc1 [1-phenyl biguanide]
CC50 (%) [1]: 0.150% | IC50 (%) [7]: 0.522%

xyleneylene bis-biguanide
CC50 (%) [1]: 0.385%
